Paper PMC10165273, “Itch receptor MRGPRX4 interacts with the receptor activity–modifying proteins” (The Journal of Biological Chemistry, 2023)
Read-outs that look alike come from different tables or passages of the source.

Biological target: T1, MRGPRX4 (Homo sapiens, UniProt Q96LA9)
T1 construct: expressed in transfected cells; host or cells: HEK293T
Experiment: IP1 accumulation HTRF assay, MRGPRX4
Assay type: cell-based
Conditions: 2 h; for activation at 80 µM: log [agonist] (M) -4.09691; for activation at 16 µM: log [agonist] (M) -4.79588; for activation at 3.2 µM: log [agonist] (M) -5.49485; for activation at 0.64 µM: log [agonist] (M) -6.19382; for activation at 0.128 µM: log [agonist] (M) -6.89279; for activation at 0.0256 µM: log [agonist] (M) -7.59176
Protocol: HEK293T cells were transfected with 1 pg/cell of MRGPRX4 DNA, and the amount of DNA was kept constant at 2 pg/cell with pcDNA3.1(+) empty vector, unless otherwise specified. Twenty four hours after transfection, IP1 assay was performed as previously described ([51]). When applicable, cells were treated with 1 μM YM254890 (YM) or different concentrations of U73122 for 1 h prior to addition of agonist or buffer. After incubation for 2 h, HTRF reagents and IP1 calibration standards were added and incubated for 2 h in the dark at room temperature. Time-resolved fluorescence signals were read on the BioTek Synergy NEO-TRF Hybrid multi-mode reader (BioTek Instruments). All data were carried out in three independent experiments with three technical replicate each.
For characterization of the Tet-On Nluc-HT7-MRGPRX4-GFP10-1D4 construct, HEK293T cells were transfected as previously described with some modifications. Dox dose-response of NLuc-HT7-MRGPRX4-GFP10-1D4 DNA titration was assayed by transfecting HEK293T cells with either 1 or 2 pg/cell of NLuc-HT7-MRGPRX4-GFP10-1D4 construct. Receptor expression was induced 4 h after transfection with addition of different concentrations of dox for 20 h. For the RAMP DNA titration assay, cells were cotransfected with a constant amount of 1 pg/cell of NLuc-HT7-MRGPRX4-GFP10-1D4 DNA and 1, 0.75, 0.5, or 0 pg/cell of each HA-RAMP-OLLAS with the homogenous transfection method. Four hours after transfection, receptor expression was induced with addition of 1000 ng/ml dox. Twenty hours after induction, IP1 assay was performed.
Data reduction, standard calibration, and transformation of HTRF data were performed as previously described ([51]). Normalized IP1 values were calculated relative to the unstimulated mock-transfected cells (set to 0%) and fully stimulated MRGPRX4 (alone if applicable) (set to 100%).

[1] = SP-FLAG-Nluc-HT7-MRGX4_Tet-GFP10-1D4, read-out: normalized IP1 accumulation
[2] = SP-FLAG-Nluc-HT7-MRGX4_Tet-GFP10-1D4 no dox, read-out: normalized IP1 accumulation

T1 sequence (Q96LA9 whole entry): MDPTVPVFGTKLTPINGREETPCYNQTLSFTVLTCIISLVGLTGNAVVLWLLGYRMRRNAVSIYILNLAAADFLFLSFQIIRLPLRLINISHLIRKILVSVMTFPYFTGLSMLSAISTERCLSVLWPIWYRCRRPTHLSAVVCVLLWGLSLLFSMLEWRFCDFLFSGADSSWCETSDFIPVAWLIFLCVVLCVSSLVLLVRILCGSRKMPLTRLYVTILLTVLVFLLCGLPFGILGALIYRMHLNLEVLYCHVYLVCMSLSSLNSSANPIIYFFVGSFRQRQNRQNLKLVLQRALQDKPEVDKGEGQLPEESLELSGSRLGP

SMILES: C[C@H](CCC(=O)O)[C@H]1CC[C@H]2[C@@H]3CC[C@@H]4C[C@H](O)CC[C@]4(C)[C@H]3C[C@H](O)[C@]12C [DCA, deoxycholic acid]
- activation at 100 µM (HA-MRGX4-1D4, log [agonist] (M) -4, read-out: normalized IP1 accumulation): 53.9%
- activation at 20 µM (HA-MRGX4-1D4, log [agonist] (M) -4.69897, read-out: normalized IP1 accumulation): 34.3%
- activation at 4 µM (HA-MRGX4-1D4, log [agonist] (M) -5.39794, read-out: normalized IP1 accumulation): 19.4%
- activation at 0.8 µM (HA-MRGX4-1D4, log [agonist] (M) -6.09691, read-out: normalized IP1 accumulation): 12.4%
- activation at […] (HA-MRGX4-1D4, log [agonist] (M) -6.79588, read-out: normalized IP1 accumulation): 11.1%
- activation at 0.032 µM (HA-MRGX4-1D4, log [agonist] (M) -7.49485, read-out: normalized IP1 accumulation): 11.4%
- activation at 100 µM (MRGPRX4: 0.25pg/cell, log [DCA] (M) -4, Fig S1c, read-out: IP1 accumulation): 41.7%
- activation at 20 µM (MRGPRX4: 0.25pg/cell, log [DCA] (M) -4.69897, Fig S1c, read-out: IP1 accumulation): 28.7%
- activation at 4 µM (MRGPRX4: 0.25pg/cell, log [DCA] (M) -5.39794, Fig S1c, read-out: IP1 accumulation): 10.1%
- activation at 100 µM (MRGPRX4: 0.5pg/cell, log [DCA] (M) -4, Fig S1c, read-out: IP1 accumulation): 53.6%
- activation at 20 µM (MRGPRX4: 0.5pg/cell, log [DCA] (M) -4.69897, Fig S1c, read-out: IP1 accumulation): 33.8%
- activation at 4 µM (MRGPRX4: 0.5pg/cell, log [DCA] (M) -5.39794, Fig S1c, read-out: IP1 accumulation): 14.2%
- activation at 0.8 µM (MRGPRX4: 0.5pg/cell, log [DCA] (M) -6.09691, Fig S1c, read-out: IP1 accumulation): 7.76%
- activation at […] (MRGPRX4: 0.5pg/cell, log [DCA] (M) -6.79588, Fig S1c, read-out: IP1 accumulation): 7.83%
- activation at 0.032 µM (MRGPRX4: 0.5pg/cell, log [DCA] (M) -7.49485, Fig S1c, read-out: IP1 accumulation): 6.46%
- activation at 100 µM (MRGPRX4: 1pg/cell, log [DCA] (M) -4, Fig S1c, read-out: IP1 accumulation): 62.8%
- activation at 20 µM (MRGPRX4: 1pg/cell, log [DCA] (M) -4.69897, Fig S1c, read-out: IP1 accumulation): 42.9%
- activation at 4 µM (MRGPRX4: 1pg/cell, log [DCA] (M) -5.39794, Fig S1c, read-out: IP1 accumulation): 19.8%
- activation at 0.8 µM (MRGPRX4: 1pg/cell, log [DCA] (M) -6.09691, Fig S1c, read-out: IP1 accumulation): 13.1%
- activation at […] (MRGPRX4: 1pg/cell, log [DCA] (M) -6.79588, Fig S1c, read-out: IP1 accumulation): 10.7%
- activation at 0.032 µM (MRGPRX4: 1pg/cell, log [DCA] (M) -7.49485, Fig S1c, read-out: IP1 accumulation): 8.32%
- activation at 100 µM (MRGPRX4: 2pg/cell, log [DCA] (M) -4, Fig S1c, read-out: IP1 accumulation): 79.9%
- activation at 20 µM (MRGPRX4: 2pg/cell, log [DCA] (M) -4.69897, Fig S1c, read-out: IP1 accumulation): 51.7%
- activation at 4 µM (MRGPRX4: 2pg/cell, log [DCA] (M) -5.39794, Fig S1c, read-out: IP1 accumulation): 26.6%
- activation at 0.8 µM (MRGPRX4: 2pg/cell, log [DCA] (M) -6.09691, Fig S1c, read-out: IP1 accumulation): 15.7%
- activation at […] (MRGPRX4: 2pg/cell, log [DCA] (M) -6.79588, Fig S1c, read-out: IP1 accumulation): 15.1%
- activation at 0.032 µM (MRGPRX4: 2pg/cell, log [DCA] (M) -7.49485, Fig S1c, read-out: IP1 accumulation): 14.6%
- activation at 100 µM (MRGPRX4: […], log [DCA] (M) -4, Fig S1c, read-out: IP1 accumulation): 38.8%
- activation at 20 µM (MRGPRX4: […], log [DCA] (M) -4.69897, Fig S1c, read-out: IP1 accumulation): 21.2%
- activation at 4 µM (MRGPRX4: […], log [DCA] (M) -5.39794, Fig S1c, read-out: IP1 accumulation): 7.81%
- activation at 0.8 µM (MRGPRX4: […], log [DCA] (M) -6.09691, Fig S1c, read-out: IP1 accumulation): 3.51%
- activation at 0.032 µM (MRGPRX4: […], log [DCA] (M) -7.49485, Fig S1c, read-out: IP1 accumulation): 3.48%
- activation at 10 µM (MRGPRX4, DCA 10uM, Fig S1d): 28.4%
- activation at 100 µM (MRGPRX4, DCA 100uM, Fig S1d, read-out: IP1 accumulation): 60.7%
- activation at 100 µM (MRGPRX4 alone, log [DCA] (M) -4, Fig S3d-f, read-out: IP1 accumulation): 100%
- activation at 20 µM (MRGPRX4 alone, log [DCA] (M) -4.69897, Fig S3d-f, read-out: IP1 accumulation): 66.8%
- activation at 4 µM (MRGPRX4 alone, log [DCA] (M) -5.39794, Fig S3d-f, read-out: IP1 accumulation): 36.1%
- activation at 0.8 µM (MRGPRX4 alone, log [DCA] (M) -6.09691, Fig S3d-f, read-out: IP1 accumulation): 26.3%
- activation at […] (MRGPRX4 alone, log [DCA] (M) -6.79588, Fig S3d-f, read-out: IP1 accumulation): 23.7%
- activation at 0.032 µM (MRGPRX4 alone, log [DCA] (M) -7.49485, Fig S3d-f, read-out: IP1 accumulation): 21.4%
- activation at 30 µM (MRGX4 + DCA, U73122 30uM, Fig S1e): 8.48%
- activation at 30 µM (MRGX4 + DCA, buffer, Fig S1e): 39.2%
- activation at 100 µM (MRGX4 + DCA, 100uM, U73122 30uM, Fig S1e, read-out: IP1 accumulation): 16.7%
- activation at 100 µM (MRGX4 + DCA, 100uM, buffer, Fig S1e, read-out: IP1 accumulation): 56.2%
- activation at 80 µM [1]: 38.3%
- activation at 16 µM [1]: 22.2%
- activation at 3.2 µM [1]: 13%
- activation at 0.64 µM [1]: 10.2%
- activation at 0.128 µM [1]: 9.26%
- activation at 0.0256 µM [1]: 9.64%
- activation at 80 µM [2]: 9.13%
- activation at 16 µM [2]: 7.51%
- activation at 3.2 µM [2]: 9.25%
- activation at 0.64 µM [2]: 7.7%
- activation at 0.128 µM [2]: 7.77%
- activation at 0.0256 µM [2]: 7.55%
- activation at 100 µM (SP-Flag-MRGX4-1D4, log [agonist] (M) -4, read-out: normalized IP1 accumulation): 65.9%
- activation at 20 µM (SP-Flag-MRGX4-1D4, log [agonist] (M) -4.69897, read-out: normalized IP1 accumulation): 34.9%
- activation at 0.8 µM (SP-Flag-MRGX4-1D4, log [agonist] (M) -6.09691, read-out: normalized IP1 accumulation): 9.9%
- activation at […] (SP-Flag-MRGX4-1D4, log [agonist] (M) -6.79588, read-out: normalized IP1 accumulation): 8.52%
- activation at 0.032 µM (SP-Flag-MRGX4-1D4, log [agonist] (M) -7.49485, read-out: normalized IP1 accumulation): 6.84%
- activation at 100 µM (SP-Flag-MRGX4-GFP10-1D4, log [agonist] (M) -4, read-out: normalized IP1 accumulation): 66.1%
- activation at 20 µM (SP-Flag-MRGX4-GFP10-1D4, log [agonist] (M) -4.69897, read-out: normalized IP1 accumulation): 33.2%
- activation at 4 µM (SP-Flag-MRGX4-GFP10-1D4, log [agonist] (M) -5.39794, read-out: normalized IP1 accumulation): 15.5%
- activation at 0.8 µM (SP-Flag-MRGX4-GFP10-1D4, log [agonist] (M) -6.09691, read-out: normalized IP1 accumulation): 8.34%
- activation at […] (SP-Flag-MRGX4-GFP10-1D4, log [agonist] (M) -6.79588, read-out: normalized IP1 accumulation): 7.34%
- activation at 0.032 µM (SP-Flag-MRGX4-GFP10-1D4, log [agonist] (M) -7.49485, read-out: normalized IP1 accumulation): 7.17%
- activation at 100 µM (log [agonist] (M) -4, MRGX4-transfected, individual replicates, read-out: IP1 accumulation, dose-response (Figure 1a)): 67.6%
- activation at 11.111 µM (log [agonist] (M) -4.95424, MRGX4-transfected, individual replicates, read-out: IP1 accumulation, dose-response (Figure 1a)): 33.9%
- activation at 1.2346 µM (log [agonist] (M) -5.90849, MRGX4-transfected, individual replicates, read-out: IP1 accumulation, dose-response (Figure 1a)): 14.9%
- activation at 0.13717 µM (log [agonist] (M) -6.86273, MRGX4-transfected, individual replicates, read-out: IP1 accumulation, dose-response (Figure 1a)): 10.6%
